Reference: US11866430B2, “Naphthyridinone compounds useful as T cell activators” (priority 2018, dated 2024)
Where two headings read alike, the source gives them in different places.

Assays:
[1] = molecular target: human DGKζ (Homo sapiens (Human), UniProt Q13574); assay: DGKζ assay (detergent/lipid micelle substrate); type: biochemical
Description: (§1) The DGKα and DGKζ reactions were performed using either extruded liposome (DGKα and DGKζ LIPGLO assays) or detergent/lipid micelle substrate (DGKα and DGKζ assays). The reactions were carried out in 50 mM MOPS pH 7.5, 100 mM NaCl, 10 mM MgCl2, 1 μM CaCl2, and 1 mM DTT (assay buffer). The reactions using a detergent/lipid micelle substrate also contained 50 mM octyl B-D-glucopyranoside. […] The lipid substrate concentrations were […], 0.25 mM DAG, and 2.75 mM PC for the extruded liposome reactions.
(§2) The compound inhibition studies were carried out as follows: 50 nL droplets of each test compound (top concentration 10 mM with 11 point, 3-fold dilution series for each compound) solubilized in DMSO were transferred to wells of a white 1536 well plate (Corning 3725). A 5 mL enzyme/substrate solution at 2× final reaction concentration was prepared by combining 2.5 mL 4× enzyme solution (20 nM DGKα or DGKζ (prepared as described below) in assay buffer) and 2.5 mL of either 4× liposome or 4× detergent/lipid micelle solution (compositions described below) and incubated at room temperature for 10 minutes. Next, 1 μL 2× enzyme/substrate solution was added to wells containing the test compound and reactions were initiated with the addition of 1 μL 300 uM ATP. The reactions were allowed to proceed for 1 hr, after which 2 μL Glo Reagent (Promega V9101) was added and incubated for 40 minutes. Next, 4 μL Kinase Detection Reagent was added and incubated for 30 minutes. Luminescence was recorded using an EnVision microplate reader. […] The compounds were evaluated at 11 concentrations to determine IC50.
(§3) The detergent/lipid micelle was prepared by combining 15 g phosphatidylserine (Avanti 840035P) and 1 g diacylglycerol (800811O) and dissolving into 150 mL chloroform in a 2 L round bottom flask. Chloroform was removed under high vacuum by rotary evaporation. The resulting colorless, tacky oil was resuspended in 400 mL 50 mM MOPS pH 7.5, 100 mM NaCl, 20 mM NaF, 10 mM MgCl2, 1 μM CaCl2), 1 mM DTT, and 200 mM octyl glucoside by vigorous mixing. The lipid/detergent solution was split into 5 mL aliquots and stored at −80° C.
(§4) Human DGK-alpha-TVMV-His-pFBgate and human DCK-zeta-transcript variant-2-TVMV-His-pFBgate baculovirus samples were generated using the Bac-to-Bac baculovirus expression system (Invitrogen) according to the manufacturer's protocol. The DNA used for expression of DGK-alpha and DGK-zeta have SEQ ID NOs: 1 and 3, respectively. Baculovirus amplification was achieved using infected Sf9 cells at 1:1500 virus/cell ratios, and grown for 65 hours at 27° C. post-transfection.
(§5) The expression scale up for each protein was carried out in the Cellbag 50 L WAVE-Bioreactor System 20/50 from GE Healthcare Bioscience. 12 L of 2×10^6 cells/mL Sf9 cells (Expression System, Davis, Calif.) grown in ESF921 insect medium (Expression System) were infected with virus stock at 1:200 virus/cell ratios, and grown for 66-68 hours at 27° C. post-infection. The infected cell culture was harvested by centrifugation at 2000 rpm for 20 min 4° C. in a SORVALL® RC12BP centrifuge. The cell pellets were stored at −70° C. until purification.
(§6) Full length human DGKα and DGKζ, each expressed containing a TVMV-cleavable C-terminal Hexa-His tag sequence (SEQ ID NOs: 2 and 4, respectively) and produced as described above, were purified from Sf) baculovirus-infected insect cell paste. The cells were lysed using nitrogen cavitation method with a nitrogen bomb (Parr Instruments), and the lysates were clarified by centrifugation. […] The three steps column chromatography included nickel affinity resin capture (i.e. HisTrap FF crude, GE Healthcare), followed by size exclusion chromatography (i.e. HiLoad 26/600 Superdex 200 prep grade, GE Healthcare for DGK-alpha, and HiPrep 26/600 Sephacryl S 300_HR, GE Healthcare for DGK-zeta).

[2] = tested on: pre-activated CD4 T cells and Raji cells; assay: Raji CD4 T Cell IL2 Assay; type: cell-based
[3] = molecular target: human DGKα (Homo sapiens (Human), UniProt P23743); assay: biochemical; details: detergent/lipid micelle substrate; read-out: DGKα IC50
Chain of human DGKα (P23743 other isoform, or with tags, fused parts or gaps): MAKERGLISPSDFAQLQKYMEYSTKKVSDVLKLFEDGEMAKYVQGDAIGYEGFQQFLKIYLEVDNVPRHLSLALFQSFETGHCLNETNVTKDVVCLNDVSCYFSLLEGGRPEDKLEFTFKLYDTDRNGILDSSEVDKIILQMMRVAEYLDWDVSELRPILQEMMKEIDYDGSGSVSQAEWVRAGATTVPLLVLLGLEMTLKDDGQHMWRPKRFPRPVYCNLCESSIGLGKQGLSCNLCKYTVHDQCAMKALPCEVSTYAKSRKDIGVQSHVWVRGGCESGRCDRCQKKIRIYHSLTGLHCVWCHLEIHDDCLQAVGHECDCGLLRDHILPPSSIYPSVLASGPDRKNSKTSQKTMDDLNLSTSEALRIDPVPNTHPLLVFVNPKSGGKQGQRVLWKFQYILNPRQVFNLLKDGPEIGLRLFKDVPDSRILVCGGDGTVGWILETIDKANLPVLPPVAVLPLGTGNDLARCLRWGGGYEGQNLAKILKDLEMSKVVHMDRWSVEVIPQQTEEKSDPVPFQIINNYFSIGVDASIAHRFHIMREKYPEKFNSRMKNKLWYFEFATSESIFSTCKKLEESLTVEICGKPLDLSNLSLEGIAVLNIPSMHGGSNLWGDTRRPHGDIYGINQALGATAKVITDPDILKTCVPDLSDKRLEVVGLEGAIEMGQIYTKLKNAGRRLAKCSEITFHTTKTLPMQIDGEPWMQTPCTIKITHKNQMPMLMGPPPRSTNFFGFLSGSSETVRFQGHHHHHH
Description: as §1, §2, §3, §4, §5, §6

[4] = detergent/lipid micelle substrate, read-out: DGKζ IC50
[5] = DGKζ IC50, detergent/lipid micelle substrate

Chain of human DGKζ (Q13574 other isoform, or with tags, fused parts or gaps): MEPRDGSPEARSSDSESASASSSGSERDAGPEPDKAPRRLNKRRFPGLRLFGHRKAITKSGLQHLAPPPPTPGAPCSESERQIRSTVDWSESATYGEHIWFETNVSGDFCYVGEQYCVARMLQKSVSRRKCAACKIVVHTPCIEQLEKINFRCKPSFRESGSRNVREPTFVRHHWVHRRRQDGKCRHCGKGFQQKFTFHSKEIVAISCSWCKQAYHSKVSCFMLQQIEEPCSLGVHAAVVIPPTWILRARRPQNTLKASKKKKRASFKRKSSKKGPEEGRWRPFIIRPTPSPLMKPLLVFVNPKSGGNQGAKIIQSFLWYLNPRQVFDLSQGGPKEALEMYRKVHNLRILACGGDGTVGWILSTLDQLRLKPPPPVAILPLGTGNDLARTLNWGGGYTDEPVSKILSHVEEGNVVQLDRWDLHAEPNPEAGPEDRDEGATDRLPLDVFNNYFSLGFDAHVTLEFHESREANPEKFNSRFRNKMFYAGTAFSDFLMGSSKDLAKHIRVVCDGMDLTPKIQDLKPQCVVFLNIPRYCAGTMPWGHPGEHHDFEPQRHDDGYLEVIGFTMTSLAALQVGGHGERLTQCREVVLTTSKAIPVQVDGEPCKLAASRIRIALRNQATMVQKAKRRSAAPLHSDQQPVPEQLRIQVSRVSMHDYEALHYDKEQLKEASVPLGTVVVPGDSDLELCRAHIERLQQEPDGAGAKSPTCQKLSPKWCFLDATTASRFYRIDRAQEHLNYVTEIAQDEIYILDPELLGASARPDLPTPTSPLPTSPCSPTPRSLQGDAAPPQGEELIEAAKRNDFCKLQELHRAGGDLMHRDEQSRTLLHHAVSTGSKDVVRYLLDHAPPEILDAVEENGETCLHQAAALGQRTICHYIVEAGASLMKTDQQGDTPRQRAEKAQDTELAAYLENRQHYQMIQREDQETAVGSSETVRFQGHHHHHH

Row | SMILES | IC50 [1, 4] [nM] | IC50 [2] [nM] | IC50 [3] [nM] | IC50 [1, 5] [nM] | IC50 ([2]; Homo sapiens, Raji) [nM]
1 | COc1cc(F)ccc1C(c1ccc(F)cc1)N1CCN(c2c([N+](=O)[O-])c(=O)n(C)c3ccc(Br)nc23)CC1 (single isomer, unassigned) [Example 58, 6-bromo-4-(4-((4-fluoro-2-methoxyphenyl)(4-fluorophenyl)methyl)piperazin-1-yl)-1-methyl-3-nitro-1,5-naphthyridin-2(1H)-one] | 19000 | 28 | 250 | – | –
2 | COc1cccc(C)c1C(c1ccc(F)cc1)N1CCN(c2c([N+](=O)[O-])c(=O)n(C)c3ccc(Br)nc23)CC1 (single isomer, unassigned) [Example 60, 6-bromo-4-(4-((4-fluorophenyl)(2-methoxy-6-methylphenyl)methyl)piperazin-1-yl)-1-methyl-3-nitro-1,5-naphthyridin-2(1H)-one] | > 240000 | 1600 | 32000 | – | –
3 | COc1cccc(C)c1C(c1ccc(F)cc1)N1CCN(c2c([N+](=O)[O-])c(=O)n(C)c3ccc(Br)nc23)CC1 (single isomer, unassigned) [Example 61, 6-bromo-4-(4-((4-fluorophenyl)(2-methoxy-6-methylphenyl)methyl)piperazin-1-yl)-1-methyl-3-nitro-1,5-naphthyridin-2(1H)-one] | 2200 | 56 | 4400 | – | –
4 | Cn1c(=O)c([N+](=O)[O-])c(N2CCN(C(c3ccc(F)cc3)c3cccc(F)c3O)CC2)c2nc(Br)ccc21 (single isomer, unassigned) [Example 75, 6-bromo-4-(4-((3-fluoro-2-hydroxyphenyl)(4-fluorophenyl)methyl)piperazin-1-yl)-1-methyl-3-nitro-1,5-naphthyridin-2(1H)-one] | – | 140 | 2600 | 130000 | –
5 | Cn1c(=O)c([N+](=O)[O-])c(N2CCN(C(c3ccc(F)cc3)c3cccc(F)c3O)CC2)c2nc(Br)ccc21 (single isomer, unassigned) [Example 76, 6-bromo-4-(4-((3-fluoro-2-hydroxyphenyl)(4-fluorophenyl)methyl)piperazin-1-yl)-1-methyl-3-nitro-1,5-naphthyridin-2(1H)-one] | – | 67 | 5500 | 2500 | –
6 | Cn1c(=O)c([N+](=O)[O-])c(N2CCN(C(c3ccccc3)c3ccccc3O)CC2)c2nc(Br)ccc21 (single isomer, unassigned) [Example 79, 6-bromo-4-(4-((2-hydroxyphenyl)(phenyl)methyl)piperazin-1-yl)-1-methyl-3-nitro-1,5-naphthyridin-2(1H)-one] | > 81000 | 67 | 81000 | – | –
7 | Cc1cccc(C(c2ccc(F)cc2)N2CCN(c3c([N+](=O)[O-])c(=O)n(C)c4ccc(Br)nc34)CC2)c1O (single isomer, unassigned) [Example 85, 6-bromo-4-(4-((4-fluorophenyl)(2-hydroxy-3-methylphenyl)methyl)piperazin-1-yl)-1-methyl-3-nitro-1,5-naphthyridin-2(1H)-one] | 770 | – | 7600 | – | 100
8 | Cc1cccc(OCc2cncc(C#N)c2)c1C(c1ccc(F)cc1)N1CCN(c2c([N+](=O)[O-])c(=O)n(C)c3ccc(Br)nc23)CC1 (single isomer, unassigned) [Example 89, 5-((2-((4-(6-bromo-1-methyl-3-nitro-2-oxo-1,2-dihydro-1,5-naphthyridin-4-yl)piperazin-1-yl)(4-fluorophenyl)methyl)-3-methylphenoxy)methyl)nicotinonitrile] | > 240000 | 2800 | 41000 | – | –
9 | C=CCOc1cccc(C)c1C(c1ccc(F)cc1)N1CCN(c2c([N+](=O)[O-])c(=O)n(C)c3ccc(Br)nc23)CC1 (single isomer, unassigned) [Example 95, 4-(4-((2-(allyloxy)-6-methylphenyl)(4-fluorophenyl)methyl)piperazin-1-yl)-6-bromo-1-methyl-3-nitro-1,5-naphthyridin-2(1-H)-one] | > 240000 | 1100 | > 240000 | – | –
10 | C=CCOc1cccc(C)c1C(c1ccc(F)cc1)N1CCN(c2c([N+](=O)[O-])c(=O)n(C)c3ccc(Br)nc23)CC1 (single isomer, unassigned) [Example 96, 4-(4-((2-(allyloxy)-6-methylphenyl)(4-fluorophenyl)methyl)piperazin-1-yl)-6-bromo-1-methyl-3-nitro-1,5-naphthyridin-2(1-H)-one] | 53000 | 360 | 87000 | – | –
11 | Cn1c(=O)c([N+](=O)[O-])c(N2CCN(C(c3ccc(F)cc3)c3ccccc3O)CC2)c2nc(C#N)ccc21 (single isomer, unassigned) [Example 98, 8-(4-((4-fluorophenyl)(2-hydroxyphenyl)methyl)piperazin-1-yl)-5-methyl-7-nitro-6-oxo-5,6-dihydro-1,5-naphthyridine-2-carbonitrile] | 4400 | 130 | 6700 | – | –
12 | C#CCOc1ccccc1C(c1ccc(F)cc1)N1CCN(c2c([N+](=O)[O-])c(=O)n(C)c3ccc(C#N)nc23)CC1 (single isomer, unassigned) [Example 101, 8-(4-((4-fluorophenyl)(2-(prop-2-yn-1-yloxy)phenyl)methyl)piperazin-1-yl)-5-methyl-7-nitro-6-oxo-5,6-dihydro-1,5-naphthyridine-2-carbonitrile] | 27000 | – | 15000 | – | 190
13 | C#CCn1c(=O)c(C#N)c(N2CCN(C(c3ccc(F)cc3)c3ccccc3O)CC2)c2nc(Br)ccc21 (single isomer, unassigned) [Example 106, 6-bromo-4-(4-((4-fluorophenyl)(2-hydroxyphenyl)methyl)piperazin-1-yl)-2-oxo-1-(prop-2-yn-1-yl)-1,2-dihydro-1,5-naphthyridine-3-carbonitrile] | 2000 | – | 960 | – | 2.4
14 | COCCn1c(=O)c(C#N)c(N2CCN(C(c3ccc(F)cc3)c3ccc(F)cc3OC)CC2)c2nc(Br)ccc21 (single isomer, unassigned) [Example 115, 6-bromo-4-(4-((4-fluoro-2-methoxyphenyl)(4-fluorophenyl)methyl)piperazin-1-yl)-1-(2-methoxyethyl)-2-oxo-1,2-dihydro-1,5-naphthyridine-3-carbonitrile] | > 240000 | 3800 | 220000 | – | –
15 | COCCn1c(=O)c(C#N)c(N2CCN(C(c3ccc(F)cc3)c3ccc(F)cc3OC)CC2)c2nc(Br)ccc21 (single isomer, unassigned) [Example 116, 6-bromo-4-(4-((4-fluoro-2-methoxyphenyl)(4-fluorophenyl)methyl)piperazin-1-yl)-1-(2-methoxyethyl)-2-oxo-1,2-dihydro-1,5-naphthyridine-3-carbonitrile] | > 240000 | 170 | > 240000 | – | –
16 | C#CCn1c(=O)c([N+](=O)[O-])c(N2CCN(C(c3ccc(F)cc3)C3CC3)CC2)c2nc(C#N)ccc21 (single isomer, unassigned) [Example 144, 8-(4-(cyclopropyl(4-fluorophenyl)methyl)piperazin-1-yl)-7-nitro-6-oxo-5-(prop-2-yn-1-yl)-5,6-dihydro-1,5-naphthyridine-2-carbonitrile] | 7900 | – | 530 | – | 20
